These are literature values, as cited in US20250228918A1, “METHODS OF CONTROLLING BODY WEIGHT AND/OR ENERGY EXPENDITURE” (Yale University, priority 2022, published 2025).

The structures appear in SMILES notation.

For the data set the following is noted: in vivo.

Consider `C[C@H]1Oc2cc(cnc2N)-c2c(nn(C)c2C#N)CN(C)C(=O)c2ccc(F)cc21` [Lorlatinib], for which the brain penetration entry was “penetrates well into brain”.
